Laboratory results reported in PMC10123100, “Single-molecule visualization of stalled replication-fork rescue by the Escherichia coli Rep helicase” (Nucleic Acids Research, 2023).

Assays:
[1] = biological target: T1, Rep helicase (His6-Rep WT) (Escherichia coli, UniProt P09980); experiment: SPR, nucleotide-stimulated dissociation of Rep from immobilised dT35; assay type: binding; details: 200 uM ATP, 20 nM Rep, biotinylated dT35, Mg2+, pH 7.6, 20 C
T1 construct: full-length with His6 tag kept, plasmid pZX2198, expressed in E. coli BL21(DE3)/pLysS; monomer, multimer on long ssDNA

[2] = biological target: T1, Rep helicase (His6-Rep WT); experiment: as above; assay type: binding; details: 200 uM ATP, 20 nM Rep, biotinylated dT35, Mg2+, pH 7.6, 20 C; remark: listed apart in the source

T1 sequence (P09980 whole entry): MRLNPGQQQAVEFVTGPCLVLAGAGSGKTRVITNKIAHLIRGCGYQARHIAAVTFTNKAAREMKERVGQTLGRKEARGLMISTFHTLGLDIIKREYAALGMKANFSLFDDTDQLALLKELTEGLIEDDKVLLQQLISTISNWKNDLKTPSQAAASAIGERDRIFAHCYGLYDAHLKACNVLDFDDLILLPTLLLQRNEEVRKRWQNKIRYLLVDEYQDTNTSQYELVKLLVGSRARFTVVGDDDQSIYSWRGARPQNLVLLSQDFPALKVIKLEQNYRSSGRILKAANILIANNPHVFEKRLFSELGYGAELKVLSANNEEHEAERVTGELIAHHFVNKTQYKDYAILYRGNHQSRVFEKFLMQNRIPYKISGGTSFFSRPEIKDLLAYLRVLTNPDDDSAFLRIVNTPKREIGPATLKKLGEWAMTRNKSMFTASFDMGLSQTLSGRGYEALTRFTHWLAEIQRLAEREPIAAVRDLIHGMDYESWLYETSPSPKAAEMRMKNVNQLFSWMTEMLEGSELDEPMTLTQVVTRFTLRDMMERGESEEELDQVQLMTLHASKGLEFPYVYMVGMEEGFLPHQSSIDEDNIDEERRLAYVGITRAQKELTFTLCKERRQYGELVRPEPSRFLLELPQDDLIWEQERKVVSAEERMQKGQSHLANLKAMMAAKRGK

## Nc1ncnc2c1ncn2[C@@H]1O[C@H](COP(=O)(O)OP(=O)(O)OP(=O)(O)O)[C@@H](O)[C@H]1O [ATP]
[1]
  SPR, nucleotide-stimulated dissociation of Rep from immobilised dT35: ATP, but not ADP or AMP-PNP, stimulated the dissociation of Rep WT and Rep ΔC33
[2]
  SPR, nucleotide-stimulated dissociation of Rep from immobilised dT35: ATP, but not ADP or AMP-PNP, stimulated the dissociation of Rep WT and Rep ΔC33
